# According to US8575163B2, “Pyrrolopyridinylpyrimidin-2-ylamine derivatives” (Merck Patent GmbH, priority 2009, dated 2013):
# Target: T1, PDK1 (Homo sapiens, UniProt O15530)
# T1 construct: His6 (N)
# T1 sequence (O15530 51-556 limits assumed): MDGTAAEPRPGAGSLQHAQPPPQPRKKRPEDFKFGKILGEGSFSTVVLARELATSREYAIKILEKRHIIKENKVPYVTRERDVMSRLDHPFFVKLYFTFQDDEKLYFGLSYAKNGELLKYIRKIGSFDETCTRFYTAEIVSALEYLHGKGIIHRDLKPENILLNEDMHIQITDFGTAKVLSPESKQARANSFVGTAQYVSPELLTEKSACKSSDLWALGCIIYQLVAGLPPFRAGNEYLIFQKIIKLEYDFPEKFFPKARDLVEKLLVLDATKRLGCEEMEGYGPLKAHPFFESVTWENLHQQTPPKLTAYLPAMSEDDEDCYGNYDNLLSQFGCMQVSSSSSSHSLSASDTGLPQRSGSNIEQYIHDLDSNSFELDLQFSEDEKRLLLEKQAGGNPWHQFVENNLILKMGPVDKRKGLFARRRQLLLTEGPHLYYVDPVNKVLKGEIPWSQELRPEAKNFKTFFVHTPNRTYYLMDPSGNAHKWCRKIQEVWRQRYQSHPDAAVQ
# Test: Test for the inhibition of PDK1 (flashplate, 33P-ATP)
# Type: biochemical
# Details: His6-PDK1 3.4 nM, 4 μM ATP, 30° C., 60 min
# Protocol: The experimental batches are carried out in a flashplate system with 384 wells/microtitration plate.
# In each case, the PDK1 sample His6-PDK1(1-50)(3.4 nM), the PDK1 substrate biotin-bA-bA-[…] (400 nM), 4 μM ATP (with 0.2 μCi of ^33 P-ATP/well) and the test substance in 50 μl of conventional experimental solution per well are incubated at 30° C. for 60 min. The test substances are employed in corresponding concentrations (if desired in a dilution series). The control is carried out without test substance. The reaction is stopped using standard methods and washed. The activity of the kinase is measured via the incorporated radioactivity in top count. In order to determine the non-specific kinase reaction (blank value), the experimental batches are carried out in the presence of 100 nM staurosporin.
# The radioactivity (decompositions per minute) of the blank value (no use of test substance in the presence of staurosporin) is subtracted from all other radioactivity values. The controls (kinase activity without test substance) are set equal to 100 percent and all other radioactivity values (after subtracting the blank value) are expressed set in relation thereto (for example in % of the control).
# [formula] IC50 values (50% inhibition) are determined with the aid of statistics programmes, such as, for example, RS1.
row,Structure (SMILES),IC50 [µM]
1,"CC(O)(c1ccccc1)c1cc(-c2c[nH]c3ncc(-c4cnn(CCF)c4)cc23)nc(N)n1 (stereo not drawn) [A81, 1-(2-amino-6-{5-[1-(2-fluoroethyl)-1H-pyrazol-4-yl]-1H-pyrrolo[2,3-b]pyridin-3-yl}pyrimidin-4-yl)-1-phenylethanol]",0.019
2,"COCOC(C)(c1ccccc1)c1cc(-c2c[nH]c3ncc(Br)cc23)nc(N)n1 (stereo not drawn) [A15, 4-(5-bromo-1H-pyrrolo[2,3-b]pyridin-3-yl)-6-(1-methoxymethoxy-1-phenylethyl)pyrimidin-2-ylamine]",0.5
3,"COCOC(C)(c1ccccc1)c1cc(-c2c[nH]c3ncc(-c4cnn(C)c4)cc23)nc(N)n1 (stereo not drawn) [A25, 4-(1-methoxymethoxy-1-phenylethyl)-6-[5-(1-methyl-1H-pyrazol-4-yl)-1H-pyrrolo[2,3-b]pyridin-3-yl]pyrimidin-2-ylamine]",0.058
4,"CC(C)(C)OC(=O)NCCNC(=O)CCn1cc(-c2cnc3[nH]cc(-c4cc(C(C)(O)c5ccccc5)nc(N)n4)c3c2)cn1 (stereo not drawn) [A63, tert-butyl {2-[3-(4-{3-[2-amino-6-(1-hydroxy-1-phenylethyl)pyrimidin-4-yl]-1H-pyrrolo[2,3-b]pyridin-5-yl}pyrazol-1-yl)propionylamino]ethyl}carbamate]",0.11
5,"CC(O)(c1ccccc1)c1cc(-c2c[nH]c3ncc(-c4cnn(CCC(=O)N5CCOCC5)c4)cc23)nc(N)n1 (stereo not drawn) [A67, 3-(4-{3-[2-amino-6-(1-hydroxy-1-phenylethyl)pyrimidin-4-yl]-1H-pyrrolo-[2,3-b]pyridin-5-yl}pyrazol-1-yl)-1-morpholin-4-ylpropan-1-one]",0.028
6,"CC(C)C(O)(c1ccccc1)c1cc(-c2c[nH]c3ncc(-c4cnn(C)c4)cc23)nc(N)n1 (stereo not drawn) [A82, 1-{2-amino-6-[5-(1-methyl-1H-pyrazol-4-yl)-1H-pyrrolo[2,3-b]pyridin-3-yl]-pyrimidin-4-yl}-2-methyl-1-phenylpropan-1-ol]",0.078
7,"CC(O)(c1ccccc1)c1cc(-c2c[nH]c3ncc(-c4cnn(CCC(=O)NCCN)c4)cc23)nc(N)n1 (stereo not drawn) [A60, N-(2-aminoethyl)-3-(4-{3-[2-amino-6-(1-hydroxy-1-phenylethyl)pyrimidin-4-yl]-1H-pyrrolo[2,3-b]pyridin-5-yl}pyrazol-1-yl)propionamide]",0.024
8,"CCC(OCOC)(c1ccncc1)c1cc(-c2c[nH]c3ncc(Br)cc23)nc(N)n1 (stereo not drawn) [A34, 4-(5-bromo-1H-pyrrolo[2,3-b]pyridin-3-yl)-6-(1-methoxymethoxy-1-pyridin-4-ylpropyl)pyrimidin-2-ylamine]",0.17
9,"CC(O)(c1ccccc1)c1cc(-c2c[nH]c3ncc(-c4cnn(CC(F)F)c4)cc23)nc(N)n1 (stereo not drawn) [A84, 1-(2-amino-6-{5-[1-(2,2-difluoroethyl)-1H-pyrazol-4-yl]-1H-pyrrolo[2,3-b]-pyridin-3-yl}pyrimidin-4-yl)-1-phenylethanol]",0.05
10,"COCOC(C)(c1cccc(C)c1)c1cc(-c2c[nH]c3ncc(-c4cnn(CCO)c4)cc23)nc(N)n1 (stereo not drawn) [A22, 2-(4-{3-[2-amino-6-(1-methoxymethoxy-1-m-tolylethyl)pyrimidin-4-yl]-1H-pyrrolo[2,3-b]pyridin-5-yl}pyrazol-1-yl)ethanol]",0.059
11,"CCC(O)(c1ccccc1)c1cc(-c2c[nH]c3ncc(-c4cnn(CCO)c4)cc23)nc(N)n1 (stereo not drawn) [A98, 1-(2-amino-6-{5-[1-(2-hydroxyethyl)-1H-pyrazol-4-yl]-1H-pyrrolo[2,3-b]-pyridin-3-yl}pyrimidin-4-yl)-1-phenylpropan-1-ol]",0.012
12,"COCOC(C)(c1cc(-c2c[nH]c3ncc(Br)cc23)nc(N)n1)c1ccccc1C (stereo not drawn) [A19, 4-(5-bromo-1H-pyrrolo[2,3-b]pyridin-3-yl)-6-(1-methoxymethoxy-1-o-tolylethyl)pyrimidin-2-ylamine]",1.5
13,"CC(O)(c1cccc(F)c1)c1cc(-c2c[nH]c3ncc(-c4ccc(CO)cc4)cc23)nc(N)n1 (stereo not drawn) [A49, 1-{2-amino-6-[5-(4-hydroxymethylphenyl)-1H-pyrrolo[2,3-b]pyridin-3-yl]-pyrimidin-4-yl}-1-(3-fluorophenyl)ethanol]",0.036
14,"CC(O)(c1ccccc1)c1cc(-c2c[nH]c3ncc(-c4cnn(CCC(=O)N5CCC(O)C5)c4)cc23)nc(N)n1 (stereo not drawn) [A65, 3-(4-{3-[2-amino-6-(1-hydroxy-1-phenylethyl)pyrimidin-4-yl]-1H-pyrrolo-[2,3-b]pyridin-5-yl}pyrazol-1-yl)-1-(3-hydroxypyrrolidin-1-yl)propan-1-one]",0.025
15,"CCC(OCOC)(c1cccc(F)c1)c1cc(-c2c[nH]c3ncc(Br)cc23)nc(N)n1 (stereo not drawn) [A54, 4-(5-bromo-1H-pyrrolo[2,3-b]pyridin-3-yl)-6-[1-(3-fluorophenyl)-1-methoxymethoxypropyl]pyrimidin-2-ylamine]",1.5
16,"CC(O)(c1ccccc1)c1cc(-c2c[nH]c3ncc(-c4cnn(C(F)F)c4)cc23)nc(N)n1 (stereo not drawn) [A39, 1-{2-amino-6-[5-(1-difluoromethyl-1H-pyrazol-4-yl)-1H-pyrrolo[2,3-b]pyridin-3-yl]pyrimidin-4-yl}-1-phenylethanol]",0.091
17,"CC(O)(c1ccccc1)c1cc(-c2c[nH]c3ncc(-c4cnn(CCC(=O)N5CCCCC5)c4)cc23)nc(N)n1 (stereo not drawn) [A66, 3-(4-{3-[2-amino-6-(1-hydroxy-1-phenylethyl)pyrimidin-4-yl]-1H-pyrrolo-[2,3-b]pyridin-5-yl}pyrazol-1-yl)-1-piperidin-1-ylpropan-1-one]",0.091
18,"CC(=O)N1CCN(c2ccc(-c3cnc4[nH]cc(-c5cc(C(C)(O)c6ccccc6)nc(N)n5)c4c3)cn2)CC1 (stereo not drawn) [A38, 1-[4-(5-{3-[2-amino-6-(1-hydroxy-1-phenylethyl)pyrimidin-4-yl]-1H-pyrrolo-[2,3-b]pyridin-5-yl}pyridin-2-yl)piperazin-1-yl]ethanone]",0.14
19,"CCC(OCOC)(c1cc(-c2c[nH]c3ncc(-c4cnn(C)c4)cc23)nc(N)n1)c1cccc(Cl)c1F (stereo not drawn) [A30, 4-[1-(3-chloro-2-fluorophenyl)-1-methoxymethoxypropyl]-6-[5-(1-methyl-1H-pyrazol-4-yl)-1H-pyrrolo[2,3-b]pyridin-3-yl]pyrimidin-2-ylamine]",0.13

# More lines, now with the values ahead:
row,IC50 [µM],Structure (SMILES)
1,0.052,"Cn1cc(-c2cnc3[nH]cc(-c4cc(C(O)(c5ccccc5)C5CCCC5)nc(N)n4)c3c2)cn1 (stereo not drawn) [A85, {2-amino-6-[5-(1-methyl-1H-pyrazol-4-yl)-1H-pyrrolo[2,3-b]pyridin-3-yl]-pyrimidin-4-yl}cyclopentylphenylmethanol]"
2,0.036,"CCC(O)(c1ccncc1)c1cc(-c2c[nH]c3ncc(-c4cnn(C)c4)cc23)nc(N)n1 (single isomer, unassigned) [A21, 1-{2-amino-6-[5-(1-methyl-1H-pyrazol-4-yl)-1H-pyrrolo[2,3-b]pyridin-3-yl]-pyrimidin-4-yl}-1-pyridin-4-ylpropan-1-ol]"
3,> 30,"COCO[C@](C)(c1cccc(F)c1)c1cc(-c2c[nH]c3ncc(Br)cc23)nc(N)n1 [A73, 4-(5-bromo-1H-pyrrolo[2,3-b]pyridin-3-yl)-6-[(R)-1-(3-fluorophenyl)-1-methoxymethoxyethyl]pyrimidin-2-ylamine]"
4,0.17,"CCC(O)(c1cccc(F)c1)c1cc(-c2c[nH]c3ncc(-c4ccc(CO)cc4)cc23)nc(N)n1 (single isomer, unassigned) [A33, 1-{2-amino-6-[5-(4-hydroxymethylphenyl)-1H-pyrrolo[2,3-b]pyridin-3-yl]-pyrimidin-4-yl}-1-(3-fluorophenyl)propan-1-ol]"
5,0.015,"CC(O)(c1ccccc1)c1cc(-c2c[nH]c3ncc(-c4cnn(CCC(N)=O)c4)cc23)nc(N)n1 (stereo not drawn) [A71, 3-(4-{3-[2-amino-6-(1-hydroxy-1-phenylethyl)pyrimidin-4-yl]-1H-pyrrolo-[2,3-b]pyridin-5-yl}pyrazol-1-yl)propionamide]"
6,0.058,"COCOC(C)(c1ccccc1)c1cc(-c2c[nH]c3ncc(-c4cnn(C)c4)cc23)nc(N)n1 (stereo not drawn) [A17, 4-(1-methoxymethoxy-1-phenylethyl)-6-[5-(1-methyl-1H-pyrazol-4-yl)-1H-pyrrolo[2,3-b]pyridin-3-yl]pyrimidin-2-ylamine]"
7,0.0021,"CC(O)(c1ccncc1)c1cc(-c2c[nH]c3ncc(-c4cnn(CC(=O)N5CCCCC5)c4)cc23)nc(N)n1 (stereo not drawn) [A61, 2-(4-{3-[2-amino-6-(1-hydroxy-1-pyridin-4-ylethyl)pyrimidin-4-yl]-1H-pyrrolo-[2,3-b]pyridin-5-yl}pyrazol-1-yl)-1-piperidin-1-ylethanone]"
8,0.054,"CC(O)(c1ccccc1)c1cc(-c2c[nH]c3ncc(-c4cnn(C(F)F)c4)cc23)nc(N)n1 (stereo not drawn) [A40, 1-{2-amino-6-[5-(1-difluoromethyl-1H-pyrazol-4-yl)-1H-pyrrolo[2,3-b]pyridin-3-yl]pyrimidin-4-yl}-1-phenylethanol]"
